# Active and inactive are the calls of the source. The rule behind the calls is not given here.
# What was measured:
# [1] = test system: Plasmodium falciparum; experiment: microbe, parasite or virus in culture; type: functional, organism-based, W2, Vero; details: Plasmodium falciparum, W2, Vero, 72 h; read-out: IC50
# Description: Antimalarial activity against chloroquine-resistant Plasmodium falciparum W2 infected in African green monkey (Cercopithecus aethiops) Vero cells assessed as parasite LDH activity after 72 hrs by Malstat reagent method
# [2] = test system: Plasmodium falciparum; experiment: microbe, parasite or virus in culture; details: D6, Vero, 72 h
# Description: Antimalarial activity against chloroquine-sensitive Plasmodium falciparum D6 infected in African green monkey (Cercopithecus aethiops) Vero cells assessed as parasite LDH activity after 72 hrs by Malstat reagent method
# [3] = test system: Leishmania donovani; experiment: Antileishmanial activity against Leishmania donovani promastigotes after 72 hrs by alamar blue assay; type: functional, organism-based
# [4] = test system: Vero; experiment: Cytotoxicity against african green monkey Vero cells after 1 to 2 days by neutral red assay; type: ADME, cell-based, Chlorocebus sabaeus
# [5] = Selectivity index, ratio of IC50 for african green monkey (Cercopithecus aethiops) Vero cells to IC50 for chloroquine-resistant Plasmodium falciparum W2
# [6] = Selectivity index, ratio of IC50 for african green monkey (Cercopithecus aethiops) Vero cells to IC50 for chloroquine-sensitive Plasmodium falciparum D6
# [7] = test system: Leishmania donovani; experiment: Ratio of suberoylanilide hydroxamic acid IC50 to compound IC50 for Leishmania donovani promastigotes
# [8] = test system: Leishmania donovani; experiment: Ratio of suberoylanilide hydroxamic acid IC50 to compound IC50 for Leishmania donovani promastigotes; type: functional
# [9] = target: Histone deacetylase; experiment: Inhibition of HDAC in human HeLa cell nuclear extracts after 15 mins by fluorescence assay; type: cell-based
# [10] = test system: Leishmania donovani
# [11] = Leishmania donovani, 72 h, read-out: IC50
# [12] = Chlorocebus sabaeus, Vero, read-out: IC50
smiles,measurement,setting,value
C[C@@H]1CC[C@H]2[C@@H](C)C(=O)O[C@@H]3O[C@@]4(C)CC[C@@H]1[C@]32OO4 [ARTEMISININ],IC50,[1],0.006 µg/mL
same,IC50,[2],0.004 µg/mL
COc1ccccc1-c1cn(CCCCCC(=O)NO)nn1,IC50,[1],0.0975 µg/mL
same,IC50,[2],0.15 µg/mL
same,IC90,"[3]; Leishmania donovani, 72 h",> 40 µg/mL
same,IC50,[3]; [11],18.8 µg/mL
same,IC50,[4]; [12],2.3 µg/mL
same,selectivity ratio,[5],23.6
same,selectivity ratio,[6],15.3
O=C(CCCCCCn1cc(-c2cccc(-c3ccccc3)c2)nn1)NO,IC50,[1],0.025 µg/mL
same,IC50,[2],0.025 µg/mL
same,IC90,"[3]; Leishmania donovani, 72 h",> 40 µg/mL
same,IC50,[3]; [11],20.5 µg/mL
same,IC50,[4]; vero,Non-toxic
same,selectivity ratio,[5],> 190
same,selectivity ratio,[6],> 190
O=C(CCCCCn1cc(-c2ccncc2)nn1)NO,IC50,[1],0.133 µg/mL
same,IC50,[2],0.195 µg/mL
same,IC90,"[3]; Leishmania donovani, 72 h",> 40 µg/mL
same,IC50,[3]; [11],17.8 µg/mL
same,IC50,[4]; vero,Non-toxic
same,selectivity ratio,[5],> 35.9
same,selectivity ratio,[6],> 24.4
O=C(CCCCCCC(=O)Nc1ccccc1)NO [VORINOSTAT],IC90,"[3]; Leishmania donovani, 72 h",57.9 µg/mL
O=C(CCCCCn1cc(-c2cccc(-c3ccccc3)c2)nn1)NO,IC50 ratio,[7],2
same,IC50,[1],0.026 µg/mL
same,Ratio,[8],2
same,IC50,[2],0.0375 µg/mL
same,IC90,"[3]; Leishmania donovani, 72 h",32.5 µg/mL
same,IC50,[3]; [11],11.2 µg/mL
same,IC50,[4]; vero,Non-toxic
same,selectivity ratio,[5],> 183
same,selectivity ratio,[6],> 127
C[C@@H]1[C@H](O)[C@@H](C)/C=C/C=C/C=C/C=C/C=C/C=C/C=C/[C@H](O[C@@H]2O[C@H](C)[C@@H](O)[C@H](N)[C@@H]2O)C[C@@H]2O[C@](O)(C[C@@H](O)C[C@@H](O)[C@H](O)CC[C@@H](O)C[C@@H](O)CC(=O)O[C@H]1C)C[C@H](O)[C@H]2C(=O)O [AMPHOTERICIN B],IC90,"[3]; Leishmania donovani, 72 h",0.31 µg/mL
same,IC50,[3]; [11],0.14 µg/mL
O=C(CCCCCCCn1cc(-c2cccnc2)nn1)NO,IC50,[1],1.69 µg/mL
same,IC50,[9],425.8 nM
same,IC50,[2],1.49 µg/mL
same,IC90,"[3]; Leishmania donovani, 72 h",> 40 µg/mL
same,IC50,[3]; [11],19.8 µg/mL
same,IC50,[4]; vero,Non-toxic
same,selectivity ratio,[5],> 2.8
same,selectivity ratio,[6],> 3.2
O=C(CCCCCn1cc(-c2ccc(-c3ccncc3)cc2)nn1)NO,IC50,[1],0.0475 µg/mL
same,IC50,[2],0.0455 µg/mL
same,IC90,"[3]; Leishmania donovani, 72 h",> 40 µg/mL
same,IC50,[3]; [11],28 µg/mL
same,IC50,[4]; vero,Non-toxic
same,selectivity ratio,[5],> 100
same,selectivity ratio,[6],> 105
Cc1ccc(-c2cn(CCCCCC(=O)NO)nn2)cc1,IC50,[1],0.14 µg/mL
same,IC50,[2],0.13 µg/mL
same,IC90,"[3]; Leishmania donovani, 72 h",> 40 µg/mL
same,IC50,[3]; [11],21.5 µg/mL
same,IC50,[4]; [12],3.85 µg/mL
same,selectivity ratio,[5],27.5
same,selectivity ratio,[6],29.6
N=C(N)c1ccc(OCCCCCOc2ccc(C(=N)N)cc2)cc1 [PENTAMIDINE],IC90,"[3]; Leishmania donovani, 72 h",1.8 µg/mL
O=C(CCCn1cc(-c2ccccc2)nn1)NO,IC50,[1],3.5 µg/mL
same,IC50,[2],2.85 µg/mL
same,IC50,[3],Not Active
same,IC50,[4]; vero,Non-toxic
same,selectivity ratio,[5],> 1.4
same,IC90,[10],inactive
same,selectivity ratio,[6],> 1.7
O=C(CCCCCn1cc(-c2ccccc2)nn1)NO,IC50,[1],0.13 µg/mL
same,IC50,[2],0.088 µg/mL
same,IC90,"[3]; Leishmania donovani, 72 h",> 40 µg/mL
same,IC50,[3]; [11],17.5 µg/mL
same,IC50,[4]; [12],3.95 µg/mL
same,selectivity ratio,[5],30.4
same,selectivity ratio,[6],44.9
O=C(CCCCCCn1cc(-c2ccccn2)nn1)NO,IC50 ratio,[7],2
same,IC50,[1],0.04 µg/mL
same,Ratio,[8],2
same,IC50,[2],0.069 µg/mL
same,IC90,"[3]; Leishmania donovani, 72 h",40 µg/mL
same,IC50,[3]; [11],5.75 µg/mL
same,IC50,[4]; [12],0.95 µg/mL
same,selectivity ratio,[5],23.8
same,selectivity ratio,[6],13.8
O=C(CCCCCCCn1cc(-c2ccccc2)nn1)NO,IC50,[1],0.695 µg/mL
same,IC50,[9],363.6 nM
same,IC50,[2],0.645 µg/mL
same,IC90,"[3]; Leishmania donovani, 72 h",> 40 µg/mL
same,IC50,[3]; [11],17.8 µg/mL
same,IC50,[4]; vero,Non-toxic
same,selectivity ratio,[5],> 6.8
same,selectivity ratio,[6],> 7.4
O=C(CCCCCCn1cc(-c2ccccc2)nn1)NO,IC50 ratio,[7],2
same,IC50,[1],0.0245 µg/mL
same,Ratio,[8],2
same,IC50,[2],0.038 µg/mL
same,IC90,"[3]; Leishmania donovani, 72 h",40 µg/mL
same,IC50,[3]; [11],4.55 µg/mL
same,IC50,[4]; [12],0.43 µg/mL
same,selectivity ratio,[5],17.6
same,selectivity ratio,[6],11.3
O=C(CCCCCCCn1cc(-c2cccc(-c3ccccc3)c2)nn1)NO,IC50,[1],0.65 µg/mL
same,IC50,[9],108.9 nM
same,IC50,[2],0.84 µg/mL
same,IC90,"[3]; Leishmania donovani, 72 h",40 µg/mL
same,IC50,[3]; [11],20.2 µg/mL
same,IC50,[4]; vero,Non-toxic
same,selectivity ratio,[5],> 7.3
same,selectivity ratio,[6],> 5.6
O=C(CCCCCn1cc(-c2ccccn2)nn1)NO,IC50,[1],0.625 µg/mL
same,IC50,[2],0.985 µg/mL
same,IC90,"[3]; Leishmania donovani, 72 h",> 40 µg/mL
same,IC50,[3]; [11],20.5 µg/mL
same,IC50,[4]; [12],2.9 µg/mL
same,selectivity ratio,[5],4.6
same,selectivity ratio,[6],2.9
O=C(CCCCCCCCn1cc(-c2ccccc2)nn1)NO,IC50,[1],2.75 µg/mL
same,IC50,[9],55.4 nM
same,IC50,[2],2.65 µg/mL
same,IC90,"[3]; Leishmania donovani, 72 h",> 40 µg/mL
same,IC50,[3]; [11],18.5 µg/mL
same,IC50,[4]; [12],3.35 µg/mL
same,selectivity ratio,[5],1.2
same,selectivity ratio,[6],1.9
